According to US20260132126A1, “IMIDAZOLE DERIVATIVES” (SANWA KAGAKU KENKYUSHO CO., LTD., priority 2022, published 2026):

Target: T1, human α1A adrenergic receptor (Homo sapiens, UniProt P35348)
T1 construct: host or cells: GeneBLAzer ADRA1A-NFAT-bla CHO-K1 cells
T1 sequence (P35348 1-466): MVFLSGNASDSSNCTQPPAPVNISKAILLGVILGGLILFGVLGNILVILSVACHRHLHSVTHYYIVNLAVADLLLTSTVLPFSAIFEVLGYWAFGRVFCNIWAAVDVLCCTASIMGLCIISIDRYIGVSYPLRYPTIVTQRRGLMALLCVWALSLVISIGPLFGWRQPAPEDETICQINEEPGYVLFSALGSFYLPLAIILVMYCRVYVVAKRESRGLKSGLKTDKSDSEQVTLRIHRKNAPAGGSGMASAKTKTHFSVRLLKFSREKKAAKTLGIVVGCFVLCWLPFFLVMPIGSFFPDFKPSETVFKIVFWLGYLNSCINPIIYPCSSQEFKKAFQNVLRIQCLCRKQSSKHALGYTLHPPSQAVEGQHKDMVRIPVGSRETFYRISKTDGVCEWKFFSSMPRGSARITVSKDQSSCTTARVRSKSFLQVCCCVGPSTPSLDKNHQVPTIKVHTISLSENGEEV
Experiment: Ca2+ mobilization assay in human α1A adrenergic receptor-expressing cells
Type: cell-based
Details: for Emax at 10 µM: % activation at 10 μmol/L test compound, 100 μmol/L norepinephrine = 100%, well without test compound = 0%; for EC50: CHO-K1 cells expressing human α1A adrenergic receptor, Fluo-4 fluorescence, concentration giving 50% response of Emax, 4-parameter logistic regression
Method: CHO-K1 cells that highly express a human α1A adrenergic receptor (GeneBLAzer™ ADRA1A-NFAT-bla CHO-K1 Cells) were purchased from Thermo Fisher Scientific, Inc., and cultured according to the instructions.
The cultured human α1A adrenergic receptor-expressing cells were washed with D-PBS, then replaced with a loading buffer (2 μmol/L Fluo-4/AM, 1× PowerLoad, 2.5 mmol/L Probenecid-containing DMEM (high-glucose)) and incubated at 37° C. for 60 minutes in a 5% CO2 incubator. The cells were detached using 0.05% trypsin-EDTA solution, and suspended in an assay buffer ([…], 0.054 mol/L KCl, 1.8 mmol/L CaCl2), 1 mmol/L MgSO4, 0.11 mol/L glucose, 0.01 mol/L NaH2PO4·2H2O, […], pH 7.3) to be 500,000 cells/mL.
Test compounds were dissolved in dimethylsulfoxide, and diluted with an assay buffer containing 0.3% BSA. The final concentrations of the test compounds were set to fall within the range of 0.1 nmol/L to 10 μmol/L. As a reference compound, norepinephrine was set to have a final concentration within the range of 0.01 nmol/L to 100 μmol/L.
On a 384-well clear bottom black plate coated with poly-D-lysine (Corning Inc.), the above-described cell-suspended solution was dispersed in 40 μL each (20,000 cells/well) and allowed to stand for 10 minutes. The plate was transferred to a fluorescent imaging plate reader (FDSS7000, Hamamatsu Photonics K.K.), and measurements were started. After 1 minute from the start of the measurements, 20 μL of the test compound solutions or norepinephrine solution (total amount: 60 μL/well) was added to each well of the plate (final concentration: 0.1% BSA, 0.1% dimethylsulfoxide), and the temporal change in fluorescence intensity of Fluo-4 was further measured for 5 minutes (Ex 480 nm/Em 540 nm).
The normalized values (% activation) were used for subsequent analyses.
Emax values and EC50 values were calculated by creating a concentration-response curve of the test compounds using a 4-parameter logistic regression with XLFit, Emax value being defined as % activation of test compound at the concentration of 10 μmol/L, and EC50 value being defined as the concentration in which 50% response of the Emax values is shown.

Compound | Emax at 10 µM [%] | EC50 [nM]
CC(Nc1ccccc1-c1cccnc1)c1c[nH]cn1 (single isomer, unassigned; (+)) [Example 36, (+)-N-(1-(1H-Imidazol-4-yl)ethyl)-2-(pyridin-3-yl)aniline] | 86 | 3.7
COc1cccc(-c2ccccc2NC(C)c2c[nH]cn2)n1 (single isomer, unassigned; (+)) [Example 39, (+)-N-(1-(1H-Imidazol-4-yl)ethyl)-2-(6-methoxypyridin-2-yl)aniline] | 94 | 1.9
CC(Nc1ccccc1-c1cscn1)c1c[nH]cn1 (single isomer, unassigned; (+)) [Example 40, (+)-N-(1-(1H-Imidazol-4-yl)ethyl)-2-(thiazol-4-yl)aniline] | 111 | 0.6
CC(Oc1ccccc1-c1cccs1)c1c[nH]cn1 (single isomer, unassigned; (+)) [Example 79, (+)-4-(1-(2-(Thiophen-2-yl)phenoxy)ethyl)-1H-imidazole] | 108 | 4.5
c1cncc(-c2sccc2NCc2c[nH]cn2)c1 [Example 7, N-((1H-imidazol-4-yl)methyl)-2-(pyridin-3-yl)thiophen-3-amine] | 92 | 4.5
c1cncc(-c2ccccc2NCc2c[nH]cn2)c1 [Example 9, N-((1H-imidazol-4-yl)methyl)-2-(pyridin-3-yl)aniline] | 101 | 2.1
c1ccc(-c2cncnc2)c(NCc2c[nH]cn2)c1 [Example 10, N-((1H-imidazol-4-yl)methyl)-2-(pyrimidin-5-yl)aniline] | 103 | 3.8
c1ccc(-c2cncs2)c(NCc2c[nH]cn2)c1 [Example 11, N-((1H-imidazol-4-yl)methyl)-2-(thiazol-5-yl)aniline] | 104 | 1.8
c1nc(CNc2cscc2-c2cscn2)c[nH]1 [Example 14, N-((1H-imidazol-4-yl)methyl)-4-(thiazol-4-yl)thiophen-3-amine] | 88 | 2.2
Cc1cccnc1-c1cscc1NCc1c[nH]cn1 [Example 16, N-((1H-imidazol-4-yl)methyl)-4-(3-methylpyridin-2-yl)thiophen-3-amine] | 88 | 9.6
COc1cccnc1-c1cscc1NCc1c[nH]cn1 [Example 17, N-((1H-imidazol-4-yl)methyl)-4-(3-methoxypyridin-2-yl)thiophen-3-amine] | 90 | 2
Cc1ncsc1-c1cscc1NCc1c[nH]cn1 [Example 18, N-((1H-imidazol-4-yl)methyl)-4-(4-methylthiazol-5-yl)thiophen-3-amine] | 88 | 5.3
Cc1ncncc1-c1ccccc1NCc1c[nH]cn1 [Example 19, N-((1H-imidazol-4-yl)methyl)-2-(4-methylpyrimidin-5-yl)aniline] | 102 | 3.1
Cc1ccc(-c2cncnc2C)c(NCc2c[nH]cn2)c1 [Example 20, N-((1H-imidazol-4-yl)methyl)-5-methyl-2-(4-methylpyrimidin-5-yl)aniline] | 91 | 2.4
c1ccc(-c2ccccc2NCc2c[nH]cn2)nc1 [Example 27, N-((1H-imidazol-4-yl)methyl)-2-(pyridin-2-yl)aniline] | 100 | 2.3
COc1cccnc1-c1ccccc1NCc1c[nH]cn1 [Example 28, N-((1H-imidazol-4-yl)methyl)-2-(3-methoxypyridin-2-yl)aniline] | 96 | 4.9
Fc1cccnc1-c1cscc1NCc1c[nH]cn1 [Example 29, N-((1H-imidazol-4-yl)methyl)-4-(3-fluoropyridin-2-yl)thiophen-3-amine] | 96 | 2.3

More lines, now with the values ahead:

Emax at 10 µM [%] | EC50 [nM] | Compound
103 | 0.8 | c1csc(-c2cscc2NCc2c[nH]cn2)c1 [Example 1]
105 | 0.9 | c1csc(-c2sccc2NCc2c[nH]cn2)c1 [Example 2, N-((1H-imidazol-4-yl)methyl)-[2,2′-bithiophen]-3-amine]
92 | 0.3 | c1cncc(-c2cscc2NCc2c[nH]cn2)c1 [Example 3, N-((1H-imidazol-4-yl)methyl)-4-(pyridin-3-yl)thiophen-3-amine]
93 | 0.6 | COc1ccncc1-c1cscc1NCc1c[nH]cn1 [Example 4, N-((1H-imidazol-4-yl)methyl)-4-(4-methoxypyridin-3-yl)thiophen-3-amine]
98 | 0.3 | COc1cncc(-c2cscc2NCc2c[nH]cn2)c1 [Example 5, N-((1H-imidazol-4-yl)methyl)-4-(5-methoxypyridin-3-yl)thiophen-3-amine]
92 | 1.1 | Fc1cncc(-c2cscc2NCc2c[nH]cn2)c1 [Example 6, N-((1H-imidazol-4-yl)methyl)-4-(5-fluoropyridin-3-yl)thiophen-3-amine]
96 | 1.2 | c1cc(-c2cscc2NCc2c[nH]cn2)[nH]n1 [Example 8, N-((1H-imidazol-4-yl)methyl)-4-(1H-pyrazol-5-yl)thiophen-3-amine]
101 | 0.4 | c1csc(-c2cscc2NCc2c[nH]cn2)n1 [Example 12, N-((1H-imidazol-4-yl)methyl)-4-(thiazol-2-yl)thiophen-3-amine]
101 | 1.1 | c1cnc(-c2cscc2NCc2c[nH]cn2)cn1 [Example 13, N-((1H-imidazol-4-yl)methyl)-4-(pyrazin-2-yl)thiophen-3-amine]
98 | 0.1 | c1ccc(-c2cscn2)c(NCc2c[nH]cn2)c1 [Example 15, N-((1H-imidazol-4-yl)methyl)-2-(thiazol-4-yl)aniline]
92 | 0.2 | COc1ccnc(-c2cscc2NCc2c[nH]cn2)c1 [Example 21, N-((1H-imidazol-4-yl)methyl)-4-(4-methoxypyridin-2-yl)thiophen-3-amine]
88 | 1.2 | COc1cccc(-c2cscc2NCc2c[nH]cn2)n1 [Example 22, N-((1H-imidazol-4-yl)methyl)-4-(6-methoxypyridin-2-yl)thiophen-3-amine]
95 | 0.1 | COc1ncncc1-c1cscc1NCc1c[nH]cn1 [Example 23, N-((1H-imidazol-4-yl)methyl)-4-(4-methoxypyrimidin-5-yl)thiophen-3-amine]
101 | 0.2 | Cc1scnc1-c1cscc1NCc1c[nH]cn1 [Example 24, N-((1H-imidazol-4-yl)methyl)-4-(5-methylthiazol-4-yl)thiophen-3-amine]
100 | 1.7 | Cc1ncncc1-c1ccc(F)cc1NCc1c[nH]cn1 [Example 25, N-((1H-imidazol-4-yl)methyl)-5-fluoro-2-(4-methylpyrimidin-5-yl)aniline]
105 | 1.2 | c1ccc(-c2cnccn2)c(NCc2c[nH]cn2)c1 [Example 26, N-((1H-imidazol-4-yl)methyl)-2-(pyrazin-2-yl)aniline]
97 | 0.7 | c1ccc(-c2cscc2NCc2c[nH]cn2)nc1 [Example 30, N-((1H-imidazol-4-yl)methyl)-4-(pyridin-2-yl)thiophen-3-amine]
103 | 0.8 | COc1cncc(-c2cscc2NCc2c[nH]cn2)n1 [Example 31, N-((1H-imidazol-4-yl)methyl)-4-(6-methoxypyrazin-2-yl)thiophen-3-amine]
